Measurements reported in US9399636B2, “Substituted dipyridylamines and uses thereof” (Genentech, Inc., priority 2012, dated 2016).

Each molecule was assayed against T1, DLK (Homo sapiens, UniProt Q12852) (assay: DLK TR-FRET assay). Conditions: 5 nM GST-tagged DLK (catalytic domain amino acid 1-520), 40 nM HIS-tagged MKK4 K131M substrate, 30 μM ATP, 60 minutes.
T1 construct: N-terminally GST-tagged DLK (catalytic domain amino acid 1-520) (Carna Bioscience); GST (N); purchased Carna Bioscience
T1 sequence (Q12852 1-520): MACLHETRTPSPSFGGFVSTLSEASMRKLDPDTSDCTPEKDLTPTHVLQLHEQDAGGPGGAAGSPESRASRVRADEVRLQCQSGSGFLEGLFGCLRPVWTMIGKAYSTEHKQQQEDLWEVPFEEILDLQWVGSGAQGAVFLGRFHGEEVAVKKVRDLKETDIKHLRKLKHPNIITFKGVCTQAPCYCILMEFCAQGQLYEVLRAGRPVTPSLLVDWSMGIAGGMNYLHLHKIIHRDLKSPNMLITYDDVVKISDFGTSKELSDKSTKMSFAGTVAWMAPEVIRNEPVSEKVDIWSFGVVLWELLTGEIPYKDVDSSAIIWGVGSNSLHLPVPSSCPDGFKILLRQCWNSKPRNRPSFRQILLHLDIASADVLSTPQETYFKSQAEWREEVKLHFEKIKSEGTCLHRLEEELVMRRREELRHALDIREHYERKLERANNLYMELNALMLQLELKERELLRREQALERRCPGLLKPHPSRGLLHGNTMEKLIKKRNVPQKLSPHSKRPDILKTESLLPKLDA
Type: biochemical
In short: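 5 nM GST-tagged DLK catalytic domain (aa 1-520) with 40 nM HIS-MKK4 K131M substrate and 30 μM ATP in HEPES pH 7.5/MgCl2 buffer. Compounds tested in 1:3 serial dilution from 20 uM, 60 min at ambient temperature. EDTA quench, then 3 h with Eu-anti-phospho-MKK4 and D2-anti-HIS before TR-FRET read (665/615 nm).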

Ki | Structure (SMILES)
0.17 nM | C[C@@H]1CCCN1c1cc(C2CCN(CCO)CC2)cc(Nc2cc(C(F)(F)F)ccn2)n1 [Example 140, 2-[6′-((R)-2-Methyl-pyrrolidin-1-yl)-2′-(4-trifluoromethyl-pyridin-2-ylamino)-3,4,5,6-tetrahydro-2H-[4,4′]bipyridinyl-1-yl]-ethanol]
4 nM | Cn1cc(-c2cc(C3CCOCC3)cc(Nc3cc(OC(F)F)ccn3)n2)cn1 [Example 118, (4-Difluoromethoxy-pyridin-2-yl)-[6-(1-methyl-1H-pyrazol-4-yl)-4-(tetrahydro-pyran-4-yl)-pyridin-2-yl]-amine]
140 nM | N#Cc1ccnc(Nc2cc(C3CN(C4COC4)C3)cc(Cl)n2)c1 [Example 24, 2-[6-Chloro-4-(1-oxetan-3-yl-azetidin-3-yl)-pyridin-2-ylamino]-isonicotinonitrile]
0.17 nM | N#Cc1ccnc(Nc2cc(C3(C#N)CCNCC3)cc(N3CCC(F)(F)C3)n2)c1 [Example 31, 2′-(4-Cyano-pyridin-2-ylamino)-6′-(3,3-difluoro-pyrrolidin-1-yl)-2,3,5,6-tetrahydro-1H-[4,4′]bipyridinyl-4-carbonitrile]
1 nM | FC(F)c1ccnc(Nc2cc(C3CCN(C4COC4)CC3)cc(N3CC4CC4C3)n2)c1 (stereo not shown) [Example 50, [6-(3-Aza-bicyclo[3.1.0]hex-3-yl)-1′-oxetan-3-yl-1′,2′,3′,4′,5′,6′-hexahydro-[4,4′]bipyridinyl-2-yl]-(4-difluoromethyl-pyridin-2-yl)-amine]
0.36 nM | FC(F)c1ccnc(Nc2cc(C3CCN(C4COC4)CC3)cc(N3CCC(F)(F)C3)n2)c1 [Example 71, (4-Difluoromethyl-pyridin-2-yl)-[6-(3,3-difluoro-pyrrolidin-1-yl)-1′-oxetan-3-yl-1′,2′,3′,4′,5′,6′-hexahydro-[4,4′]bipyridinyl-2-yl]-amine]
110 nM | FC(F)c1ccnc(Nc2cc(C3CN(CC(F)(F)F)C3)cc(Cl)n2)c1 [Example 20, {6-Chloro-4-[1-(2,2,2-trifluoro-ethyl)-azetidin-3-yl]-pyridin-2-yl}-(4-difluoromethyl-pyridin-2-yl)-amine]
15 nM | N#Cc1ccnc(Nc2cc(C3CCOCC3)cc(N3CCC4(CCOC4)C3)n2)c1 (stereo not shown) [Example 85, 2-[6-(2-Oxa-7-aza-spiro[4.4]non-7-yl)-4-(tetrahydro-pyran-4-yl)-pyridin-2-ylamino]-isonicotinonitrile]
56 nM | CC(C)(C)OC(=O)N1CC(c2cc(Cl)nc(Nc3cc(C#N)ccn3)c2)C1 [Example 41, 3-[2-Chloro-6-(4-cyano-pyridin-2-ylamino)-pyridin-4-yl]-azetidine-1-carboxylic acid tert-butyl ester]
2 nM | CC(=O)N1CCC(c2cc(Nc3cc(C(F)(F)F)ccn3)nc(N3CCC[C@H]3C)c2)CC1 [Example 141, 1-[2′-((R)-2-Methyl-pyrrolidin-1-yl)-6′-(4-trifluoromethyl-pyridin-2-ylamino)-3,4,5,6-tetrahydro-2H-[4,4′]bipyridinyl-1-yl]-ethanone]
24 nM | N#CC1(c2cc(Nc3cc(C(F)F)ccn3)nc(N3CCC3)c2)CCOCC1 [Example 53, 4-[2-Azetidin-1-yl-6-(4-difluoro-methyl-pyridin-2-ylamino)-pyridin-4-yl]-tetrahydro-pyran-4-carbonitrile]
43 nM | N#CC1(c2cc(Cl)nc(Nc3cc(C(F)F)ccn3)c2)CCOCC1 [Example 66, 4-[2-Chloro-6-(4-difluoromethyl-pyridin-2-ylamino)-pyridin-4-yl]-tetrahydro-pyran-4-carbonitrile]
13 nM | N#Cc1ccnc(Nc2cc(C3(C#N)CCOCC3)cc(N3CCC3)n2)c1 [Example 75, 2-[6-Azetidin-1-yl-4-(4-cyano-tetrahydro-pyran-4-yl)-pyridin-2-ylamino]-isonicotinonitrile]
21 nM | COC1CN(c2cc(C3(C#N)CCOCC3)cc(Nc3cc(C(F)F)ccn3)n2)C1 [Example 54, 4-[2-(4-Difluoromethyl-pyridin-2-ylamino)-6-(3-methoxy-azetidin-1-yl)-pyridin-4-yl]-tetrahydro-pyran-4-carbonitrile]
710 nM | N#Cc1ccnc(Nc2cc(C3CCN(C4COC4)CC3)ccn2)c1 [Example 124, 2-(1′-Oxetan-3-yl-1′,2′,3′,4′,5′,6′-hexahydro-[4,4′]bipyridinyl-2-ylamino)-isonicotinonitrile]
0.17 nM | C[C@@H]1CCCN1c1cc(C2(C#N)CCNCC2)cc(Nc2cc(C#N)ccn2)n1 [Example 39, 2′-(4-Cyano-pyridin-2-ylamino)-6′-((R)-2-methyl-pyrrolidin-1-yl)-2,3,5,6-tetrahydro-1H-[4,4′]bipyridinyl-4-carbonitrile]

Ki | Structure (SMILES)
0.88 nM | N#Cc1ccnc(Nc2cc(C3CCOCC3)cc(N3CCC(F)(F)C3)n2)c1 [Example 130, 2-[6-(3,3-Difluoro-pyrrolidin-1-yl)-4-(tetrahydro-pyran-4-yl)-pyridin-2-ylamino]-isonicotinonitrile]
170 nM | CC(=O)N1CCC(c2cc(C)nc(Nc3cc(C(F)F)ccn3)c2)CC1 [Example 62, 1-[2′-(4-Difluoromethyl-pyridin-2-ylamino)-6′-methyl-3,4,5,6-tetrahydro-2H-[4,4′]bipyridinyl-1-yl]-ethanone]
6.6 nM | C[C@@H]1CCCN1c1cc(C2CCN(S(C)(=O)=O)CC2)cc(Nc2cc(C(F)(F)F)ccn2)n1 [Example 139, [1′-Methanesulfonyl-6-((R)-2-methyl-pyrrolidin-1-yl)-1′,2′,3′,4′,5′,6′-hexahydro-[4,4′]bipyridinyl-2-yl]-(4-trifluoromethyl-pyridin-2-yl)-amine]
2.5 nM | N#Cc1ccnc(Nc2cc(C3(C#N)CCNCC3)cc(N3CC(F)(F)C3)n2)c1 [Example 37, 2′-(4-Cyano-pyridin-2-ylamino)-6′-(3,3-difluoro-azetidin-1-yl)-2,3,5,6-tetrahydro-1H-[4,4′]bipyridinyl-4-carbonitrile]
5.1 nM | COC1CN(c2cc(C3(C#N)CCNCC3)cc(Nc3cc(C(F)(F)F)ccn3)n2)C1 [Example 19, 6′-(3-Methoxy-azetidin-1-yl)-2′-(4-trifluoromethyl-pyridin-2-ylamino)-2,3,5,6-tetrahydro-1H-[4,4′]bipyridinyl-4-carbonitrile]
0.17 nM | C[C@@H]1CCCN1c1cc(C2(C#N)CCN(C)CC2)cc(Nc2cc(C#N)ccn2)n1 [Example 33, 2′-(4-Cyano-pyridin-2-ylamino)-1-methyl-6′-((R)-2-methyl-pyrrolidin-1-yl)-2,3,5,6-tetrahydro-1H-[4,4′]bipyridinyl-4-carbonitrile]
1.4 nM | N#Cc1ccnc(Nc2cc(C3CCN(C4COC4)CC3)cc(C3CC3)n2)c1 [Example 28, 2-(6-Cyclopropyl-1′-oxetan-3-yl-1′,2′,3′,4′,5′,6′-hexahydro-[4,4′]bipyridinyl-2-ylamino)-isonicotinonitrile]
0.32 nM | N#CC1(c2cc(Nc3cc(C(F)(F)F)ccn3)nc(N3CC(F)C3)c2)CCNCC1 [Example 23, 6′-(3-Fluoro-azetidin-1-yl)-2′-(4-trifluoromethyl-pyridin-2-ylamino)-2,3,5,6-tetrahydro-1H-[4,4′]bipyridinyl-4-carbonitrile]
51 nM | COC1CN(c2cc(C3CCOCC3)cc(Nc3cc(C#N)ccn3)n2)C1 [Example 87, 2-[6-(3-Methoxy-azetidin-1-yl)-4-(tetrahydro-pyran-4-yl)-pyridin-2-ylamino]-isonicotinonitrile]
2.1 nM | N#CC1(c2cc(Nc3cc(C(F)F)ccn3)nc(N3CCC(F)(F)C3)c2)CCOCC1 [Example 56, 4-[2-(4-Difluoromethyl-pyridin-2-ylamino)-6-(3,3-difluoro-pyrrolidin-1-yl)-pyridin-4-yl]-tetrahydro-pyran-4-carbonitrile]
0.2 nM | CC(=O)N1CCC(c2cc(Nc3cc(C#N)ccn3)nc(N3CCC[C@H]3C)c2)CC1 [Example 119, 2-[1′-Acetyl-6-((R)-2-methyl-pyrrolidin-1-yl)-1′,2′,3′,4′,5′,6′-hexahydro-[4,4′]bipyridinyl-2-ylamino]-isonicotinonitrile]
220 nM | N#Cc1ccnc(Nc2cc(C3CN(CC(F)(F)F)C3)cc(Cl)n2)c1 [Example 32, 2-{6-Chloro-4-[1-(2,2,2-trifluoro-ethyl)-azetidin-3-yl]-pyridin-2-ylamino}-isonicotinonitrile]
21 nM | CCc1cc(C2CCN(C3COC3)CC2)cc(Nc2cc(C(F)F)ccn2)n1 [Example 26, (4-Difluoromethyl-pyridin-2-yl)-(6-ethyl-1′-oxetan-3-yl-1′,2′,3′,4′,5′,6′-hexahydro-[4,4′]bipyridinyl-2-yl)-amine]
100 nM | N#Cc1ccnc(Nc2cc(C3CCOCC3)cc(N3CC4(COC4)C3)n2)c1 [Example 82, 2-[6-(2-Oxa-6-aza-spiro[3.3]hept-6-yl)-4-(tetrahydro-pyran-4-yl)-pyridin-2-ylamino]-isonicotinonitrile]
12.6 nM | N#Cc1ccnc(Nc2cc(C3CCOCC3)cc(N3CC(F)(F)C3)n2)c1 [Example 104, 2-[6-(3,3-Difluoro-azetidin-1-yl)-4-(tetrahydro-pyran-4-yl)-pyridin-2-ylamino]-isonicotinonitrile]
